Data on 12 compounds can be found in PubChem BioAssay (NCI).

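Dose response: 5 concentrations. Exposure: 48 h. Format: 96-well plates. Endpoint: linear interpolation; highest concentration if not reached. GI50 is the concentration that inhibits growth by half. TGI marks complete inhibition of growth.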

Among the test systems are ACHN renal; A549 NSCLC; SF-539 CNS; RXF 393 renal; U251 CNS; NCI-H23 lung; K-562 leukemia; M14 melanoma; SW-620 colon; NCI-H522 lung.
Assay in all cases: NCI-60 cell line screen, 48 h

As for `O=C1C(=O)N(C(=O)c2ccc(Cl)c(Cl)c2)c2ccccc21`, the TGI in the assay on ACHN renal, in the assay on A549 NSCLC, in the assay with SF-539 CNS, with RXF 393 renal, with U251 CNS and in the assay with NCI-H23 lung was over 100 µM throughout. Further, the TGI in the assay on K-562 leukemia, with M14 melanoma and in the assay on SW-620 colon was over 100 µM throughout.

As for `Cc1cc(C)nc(NS(=O)(=O)c2ccc(Nc3c4ccccc4nc4c(C(=O)Nc5ccc(S(=O)(=O)N=C(N)N)cc5)ccc(Cl)c34)cc2)n1`, the TGI in the assay with ACHN renal is over 100 µM; in the assay on A549 NSCLC it was over 100 µM; with SF-539 CNS, 45.6 µM; in the assay with RXF 393 renal it was 38.6 µM; with NCI-H522 lung, 29.4 µM; in the assay with U251 CNS, 34.6 µM. Besides, the TGI in the assay with NCI-H23 lung is 43.7 µM; in the assay with K-562 leukemia, over 100 µM; in the assay with M14 melanoma, over 100 µM.

For `COc1cc(OC)c([C@@H]2OC(=O)C3C2C(=O)O[C@H]3c2cc(OC)c(OC)cc2OC)cc1OC` (stereo partly drawn), the TGI in the assay with ACHN renal, in the assay with A549 NSCLC, in the assay with SF-539 CNS, with RXF 393 renal, with U251 CNS and in the assay with NCI-H23 lung was over 100 µM each time. Moreover, the results for the TGI in the assay with K-562 leukemia, with M14 melanoma and with SW-620 colon were over 100 µM, over 100 µM and over 10 µM, respectively.

As to `Nc1nc(SCc2ccccn2)c2ncn(C3CCCC3)c2n1`, the TGI with ACHN renal, with A549 NSCLC, in the assay with RXF 393 renal, in the assay with NCI-H522 lung, in the assay with U251 CNS and with NCI-H23 lung was over 100 µM each time. For the same compound, the TGI in the assay with K-562 leukemia, with M14 melanoma and in the assay on SW-620 colon was over 100 µM throughout.

Consider `COC(=O)C1CC2(CC3=C1CCCC3)OCCO2` (stereo not drawn), for which the TGI in the assay on A549 NSCLC, in the assay with SF-539 CNS, in the assay on RXF 393 renal, in the assay on NCI-H522 lung, in the assay with U251 CNS and with NCI-H23 lung was over 100 µM in each case. Further, the TGI in the assay with K-562 leukemia, in the assay with M14 melanoma and with SW-620 colon was over 100 µM each time.

Consider `Cc1cc(-c2ncc(CC(=O)Nc3ccc(-c4cnccn4)cn3)cc2C)ccn1`, for which the GI50 is 31500 nM in the assay on ACHN renal; 36.7 µM with A549 NSCLC; 26100 nM in the assay on SF-539 CNS; 42.2 µM with RXF 393 renal; 22.7 µM with NCI-H522 lung; 24600 nM in the assay with U251 CNS. Further, the GI50 with NCI-H23 lung was 23600 nM; in the assay with K-562 leukemia it was 22.2 µM; in the assay on SW-620 colon, 98.7 µM. Further, the TGI with ACHN renal, in the assay with A549 NSCLC, with SF-539 CNS, in the assay with RXF 393 renal, with NCI-H522 lung and in the assay with U251 CNS was over 100 µM throughout. The TGI with NCI-H23 lung, with K-562 leukemia and in the assay with SW-620 colon was over 100 µM in each case.

For `C=C1C(=O)O[C@H]2[C@H]1CC/C(Cn1cc(CNC(=O)Cc3cn(C(=O)c4ccc(Cl)cc4)c4ccc(OC)cc34)nn1)=C\CC[C@@]1(C)O[C@@H]21`, the GI50 in the assay on ACHN renal was 1920 nM; in the assay with A549 NSCLC, 12.7 µM; with SF-539 CNS, 1570 nM; in the assay on RXF 393 renal, 1.25 µM; with U251 CNS it was 1890 nM; in the assay with NCI-H23 lung, 2580 nM. Moreover, the GI50 is 1650 nM in the assay with M14 melanoma and 0.932 µM in the assay on SW-620 colon. Moreover, the TGI in the assay on ACHN renal turned out to be 3.71 µM; in the assay on A549 NSCLC, 29.6 µM; with SF-539 CNS, 2.96 µM; in the assay with RXF 393 renal, 2.59 µM; with U251 CNS, 3.55 µM; in the assay with NCI-H23 lung, 6.7 µM. Besides, the TGI in the assay with M14 melanoma came out at 3.28 µM; in the assay with SW-620 colon, 2.65 µM.

Consider `O=C(NNc1nc(Cl)nc(N2CCN(C(c3ccccc3)c3ccccc3)CC2)n1)c1ccccc1`, for which the GI50 with ACHN renal was 1750 nM; in the assay with A549 NSCLC it was 13.5 µM; in the assay on SF-539 CNS it was 1730 nM; in the assay with RXF 393 renal it was 1.62 µM; with U251 CNS, 1690 nM; in the assay on NCI-H23 lung, 1830 nM. In addition, the GI50 is 0.734 µM in the assay on K-562 leukemia and 1590 nM in the assay on M14 melanoma. For the same compound, the TGI with ACHN renal was determined as 3.17 µM; in the assay on A549 NSCLC it was 30.5 µM; with SF-539 CNS, 3.15 µM; with RXF 393 renal it was 3.13 µM; in the assay with U251 CNS, 3.13 µM; with NCI-H23 lung, 3.64 µM. The TGI in the assay on K-562 leukemia was over 100 µM; in the assay on M14 melanoma it was 3.12 µM.

Consider `CCc1cccc(C(C)C)c1NC(=O)C(=O)C(Cc1nc2ccccc2[nH]c1=O)C(=O)OC` (stereo not drawn), for which the TGI in the assay with ACHN renal, in the assay on A549 NSCLC, with SF-539 CNS, with RXF 393 renal, in the assay with NCI-H522 lung and in the assay on U251 CNS was over 100 µM in each case. Also, the TGI in the assay with NCI-H23 lung, in the assay on K-562 leukemia and in the assay on M14 melanoma was over 100 µM in each case.

Turning to `CC(=O)n1c(COS(C)(=O)=O)nc2ccccc21`, the TGI in the assay on ACHN renal, in the assay with A549 NSCLC, in the assay with SF-539 CNS, in the assay on RXF 393 renal, in the assay on NCI-H522 lung and with U251 CNS was over 100 µM throughout. Also, the TGI in the assay on NCI-H23 lung, in the assay on M14 melanoma and in the assay with SW-620 colon was over 100 µM each time.

As to `N#CCC(=O)Nc1cccc(C(F)(F)F)c1`, the TGI in the assay with ACHN renal, in the assay with A549 NSCLC, with SF-539 CNS, with RXF 393 renal, in the assay with NCI-H522 lung and in the assay on U251 CNS was over 100 µM each time. The TGI in the assay on NCI-H23 lung, with M14 melanoma and in the assay on SW-620 colon was over 100 µM in each case.

For `COc1cc2c3c(n(C)c(=O)c2cc1OC)-c1cc2c(cc1/C3=C\CCCCCN)OCO2`, the GI50 with ACHN renal was 289 nM; in the assay on A549 NSCLC, 6.53 µM; with SF-539 CNS, 1960 nM; with RXF 393 renal, 7 µM; in the assay with NCI-H522 lung it was 1.23 µM; in the assay on U251 CNS, 1560 nM. In addition, the GI50 was 1620 nM in the assay with NCI-H23 lung and 2550 nM with M14 melanoma. Also, the TGI was 9.28 µM with ACHN renal; over 54.5 µM in the assay on A549 NSCLC; 14.8 µM in the assay on SF-539 CNS; 41 µM with RXF 393 renal; over 100 µM with NCI-H522 lung; 16.7 µM in the assay with U251 CNS. Moreover, the TGI in the assay on NCI-H23 lung was 13.3 µM; in the assay with M14 melanoma, over 46.6 µM.
